Laboratory results as given in patent US20260273029A1, “DRY EYE TREATMENT” (Inoculus Ventures, LLC, priority 2022, published 2026).

Experiments:
biofilm on the eyelid = assay: Treatment of a human subject (Example 13): eyelid photographs and reported symptoms; assay type: in vivo; conditions: daily Avenova
Description: All images are from the same subject at the Watson Dry Eye Center in Raleigh NC at the specified times. The images were reviewed retrospectively to determine if the visual signs of biofilm on the eyelid were removed by a composition of α-amylase from Aspergillus oryzae and 0.01% hypochlorous acid. It should be noted that from May 23, 2018-Nov. 20, 2020 the patient cleaned their eyes with just 0.01% hypochlorous acid in saline two times a day. After this, the patient used the novel composition of α-amylase from Aspergillus oryzae and 0.01% hypochlorous acid. The first composition was made from powdered α-amylase from Aspergillus oryzae and liquid 0.01% hypochlorous acid in saline right before application to the eyelid with a cotton swab. […] Dosage information is written on the timeline below.
FIG. 1A and FIG. 1B are photographs depicting two different areas of an eye of the subject afflicted with blocked meibomian glands, shiny biofilm at the base of eyelashes, shine biofilm on eyelashes, and lash growth misdirection taken on May 23, 2018 (time 0). After the photos were taken, the subject was treated with Blephex and Intense Pulse Light Therapy for biofilm removal treating inflammation.
Subject received a subsequent treatment session on Dec. 4, 2018. FIG. 2A and FIG. 2B are photographs depicting the two different areas of the eye of the subject on Dec. […]

[1] = test system: Staphylococcus aureus biofilms; assay: S. Aureus biofilm reduction in 96 well plate: 10 min treatment, crystal violet stain, optical density at 600 nm; assay type: cell-based, Staphylococcus aureus subsp. aureus Rosenbach (ATCC 29213); conditions: for Reduction in Enzyme Effectiveness by preservative: 10 mg/mL α-amylase + preservative, FIG. 12A, 12B
Protocol: • Step 1. Place a new CuveTip on the Photopette • Step 2. Turn on the Photopette and ensure the bluetooth has connected to the iPad. • Step 3. Open the App and set the measurement to collect at 600 nm (use ecoli setting for brevity). • Step 4. Zero the Photopette in DI water, and clean the tip with a chemwipe. • Step 5. Aseptically transfer 100 ml of the TSB citrate media (TSBC) to a flask. • Step 6. Aseptically transfer the overnight culture of Staphylococcus aureus subsp. aureus Rosenbach (ATCC 29213) in Tryptic Soy Broth to the TSB citrate media (TSBC) using a pipet until the culture is diluted to A600 of 0.02 (~2×10^8 CFU/ml) measured with the Photopette. • Step 7. Remove a sterile 96 well plate from the sterile packaging in the hood and place on the table. • Step 8. Set an 8 channel pipet for […] and attach sterile tips. • Step 9. Plate the desired number of wells with […] of the diluted culture. • Step 10. Cover the well plate and incubate overnight for 18 hrs at 37° C.
Plate S. Aureus in all wells of a 96 tissue culture treated well plate. The well plate should incubate for 18 hrs at 37° C. before being assayed for biofilm formation.
Carefully tilt plate and pipet all liquid from the wells by inserting the pipet tips in the bottom corner of the wells to remove non-adherent cells without disturbing the biofilm grown on the bottom of the well.
Start a timer for 10 minutes when the first row is treated using an 8-channel pipette. Each row should be treated every 30 seconds making sure to gently release the composition in the corner of the well to not disturb the biofilm mechanically.
After 10 min all fluid should be removed row by row every 30 seconds starting with Row 1. The fluid must be removed with gentle pipetting, with the plate at an angle, with the pipette in the corner to remove non-adherent cells without disturbing the biofilm grown on the bottom of the well.
Add 50 μl of 0.1% crystal violet (CV) to stain adherent cells for all wells.
Carefully rinse all wells by submerging the plate in a DI water bath to remove all remaining crystal violet.
Dry the well plate and measure the optical density of the biofilms using a plate reader at 600 nm.
Repeat the steps outlined in 1.2 and 1.3 for scheduled testing days on days 7, 14, 21, 28, and 35. For each day of testing scheduled at days 7, 14, 21, 28, and 35 a well plate of biofilm should be prepared the day before.
The remaining biofilm density was assessed using a cell plate reader at 600 nm called an optical density 600 (OD600) measurement.
Staphylococcus aureus biofilms were grown in 96 well (Corning Falcon) cell culture treated plates using a TSB broth supplemented with yeast extract, glucose, and sodium citrate to induce biofilm formation and incubated for 18 hours.
Non-adherent cells were removed and the biofilms were treated with different solutions to test the ability to break down the Staph. aureus biofilms. Solutions with α-amylase were produced at 10 mg/mL using α-amylase from Aspergillus oryzae (Sigma-Aldrich Catalog #10065) ~30 U/mg.
After 10 minutes of incubation non-adherent cells were removed and the residual biofilms were stained with crystal violet. The density of the remaining biofilm was measured at 600 nm using a Byonoy Absorbance 96 plate reader.
Staphylococcus aureus biofilms were grown in 96 well (Crnming Falcon) cell culture treated plates using a TSB broth supplemented with yeast extract, glucose, and sodium citrate to induce biofilm formation and incubated for 18 hours. […]

Molecule: OCl [0.01% hypochlorous acid, hypochlorous acid]
- biofilm at the eyelashes (biofilm on the eyelid; time 2 (June 18 2019), FIG. 3A): the biofilm continues to grow at the base of the eyelashes
- biofilm at the eyelashes and eyelid (biofilm on the eyelid; time 3 (October 15 2019), FIGS. 4A and 4B): the shine biofilm remains at the eyelashes and inside the eyelid
- inhibition of biofilm removal by the enzyme ([1]; 0.01% hypochlorous acid with 10 mg/ml α-amylase and cofactors, FIG. 13): did not inhibit biofilm removal by the enzyme
- biofilm reduction by the additive on its own ([1]; without α-amylase, 10 min): slightly reduce the biofilm

Molecule: OC[C@H]1O[C@H](O[C@H]2O[C@H](CO)[C@@H](O)[C@H](O)[C@H]2O)[C@H](O)[C@@H](O)[C@@H]1O [Trehalose]
- differences in the enzyme activity (break down of biofilms) between concentrations ([1]; 3%, 6.8%, and 8% Trehalose solutions, α=0.05, FIG. 17): no significant differences

Molecule: benzalkonium chloride [BAK (benzalkonium chloride) 0.01%]
- Reduction in Enzyme Effectiveness by preservative ([1]; 10 min): No Reduction in Enzyme Effectiveness

Molecule: sodium perborate [GenAqua/Dequest (sodium perborate)]
- Reduction in Enzyme Effectiveness by preservative ([1]; 10 min): No Reduction in Enzyme Effectiveness
